Source: US20140377773A1, “Detection Marker for Anticancer Effects by Selenomethionine as an Inhibitor of Environmental Toxicity” (Dongguk University Industry-Academic Cooperation Foundation, priority 2013, published 2014)

Assays:
[1] = system: CRC; settings: patients who take selenium (Marshall 2008); cited from earlier work
[2] = system: AOM-DSS mouse model; format: in vivo; settings: group 4 (15 ppm SeMet pretreatment + AOM-DSS) compared to group 3 (AOM-DSS)
Procedure: In order to examine the chemopreventive activity of SeMet (selenomethionine) against the development of colorectal cancer, the frequency and size of colon polyps in an inflammation-related colorectal cancer-induced mouse model according to the intake of SeMet (selenomethionine) were examined.
Specifically, an experiment was performed using forty eight 5-week-old ICR male mice (Lab Animal, Korea) divided into the following groups: group 1: treated with neither SeMet (selenomethionine) nor AOM-DSS; group 2: treated with 15 ppm SeMet (selenomethionine) (Pharma Se Inc, USA); group 3: treated with AOM-DSS; and group 4: pretreated with 15 ppm SeMet (selenomethionine) and then treated with AOM-DSS (FIGS. 1A and 1B).
AOM (azoxymethane) (Sigma-Aldrich Co, USA) that is a colorectal cancer-inducing substance was injected intraperitoneally (i.p.) into the mice at a dose of 10 mg/kg, and 1.5% (w/v) of dextran sodium sulfate (DSS) (MP Biomedicals, LLC, USA) that is a colitis-inducing substance was allowed to drink for one week after injection of AOM.
The mice of the four groups were euthanized with CO2 gas when reached 22 weeks of age, and the colons were extracted and observed.

[3] = system: PNP (purine nucleoside phosphorylase); test: Immunohistochemical analysis of colon tissue: PNP; format: in vivo, mouse; settings: immunohistochemistry
Procedure: (§1) Immunohistochemical analysis of the PHB, PNP, ANXA2 and CRP markers determined in Example 4 for the colon tissue samples obtained from groups 1 to 4 in Example 1 was performed.
(§2) Specifically, the colon paraffin sections obtained from the mice of groups 1 to 4 in […] were deparaffinized and rehydrated. In addition, endogenous peroxidases were quenched with methanol containing 0.3% H2O2 for 20 minutes. The sections were incubated with the primary antibodies anti-prohibitin (H-80) (sc-28259, Santa Cruz Biotechnology), anti-PNP (sc-135163, Santa Cruz Biotechnology), anti-CRP (H-90) (sc-30047, Santa Cruz Biotechnology), anti-annexin II (H-50) (sc-9061, Santa Cruz Biotechnology) and anti-8-OhdG (MOG-100P, JaICA) at 4° C. overnight. Then, the sections were incubated with biotin-conjugated secondary antibodies corresponding to the primary antibodies for 30 minutes, after which the sections were washed with PBS and incubated with streptavidin horseradish peroxidase (Vector Labs) for 30 minutes. The sections were washed with PBS, and then incubated with a DAB (3,3′-diaminobenzidine) substrate solution containing 1.8×10^−3% (v/v) of H2O2 for 10 minutes. […] The degree of staining of each of the markers in tumor cells developed in the stained tissues of each group was measured according to the method described in “Charafe-Jauffret, E., et al. (2004). […]

[4] = system: 8-OHdG (8-hydroxy-2'-deoxyguanosine); test: 8-OHdG oxidative stress marker staining of colon tissue; format: in vivo, mouse; settings: group pretreated with SeMet and treated with AOM-DSS compared to group treated with AOM-DSS
Procedure: (§3) Each of the colons extracted from the mice in Example 1 was fixed in 10% formalin, and then embedded in paraffin to make FFPE (paraffin-embedded) samples. Each of the FFPE samples was sectioned to a thickness of 10 μm and mounted on micro-slides (MUTO-GLASS, Japan), followed by drying at 37° C. overnight. Then, the paraffin sections were deparaffinized with xylene and concentration gradient alcohol. The deparaffinized tissue sections were stained with hematoxylin and eosin (H & E) (Sigma Aldrich) and an antibody (MOG-100P, JaICA) of 8-OHdG (8-hydroxy-2′-deoxyguanosine) known as an oxidative stress marker.

[5] = system: CRP (C-reactive protein); test: Immunohistochemical analysis of colon tissue: CRP; format: in vivo, mouse
Procedure: as §1, §2

[6] = system: colon tissues; test: 2-DE and nano-HPLC-ESI-QIT-MS proteomics of colon tissue; format: in vivo, mouse; settings: group 4 vs group 3
Procedure: In order to investigate the molecular target of SeMet (selenomethionine) having chemopreventive activity against colorectal cancer, the colon tissue samples obtained from the mice of groups 1 to 4 in Example 1 were analyzed using a 2-DE (2-dimensional electrophoresis) method.
Specifically, the colon tissues (excluding polyps) obtained from group 1 treated neither with SeMet (selenomethionine) nor AOM-DSS, group 2 treated with 15 ppm SeMet (selenomethionine) (Pharma Se Inc, USA), group 3 treated with AOM-DSS and group 4 treated with AOM-DSS after pretreatment with 15 ppm SeMet (selenomethionine) were washed with homogenization buffer A (50 mM Tris-HCl (pH7.5), 2 mM EDTA, 150 mM NaCl and 0.5 mM DTT) and then cut to small pieces. The pieces were homogenized in buffer (50 mM Tris-HCl (pH 7.5), 0.25 M sucrose, 5 mM magnesium acetate, 0.2 mM EDTA and 0.5 mM DTT) supplemented with Halt™ protease inhibitor cocktail (Thermo Fisher Scientific, Rockford, Ill.) on ice using a grinding kit (GE Healthcare Life Science, Uppsala, Sweden). Then, the solution was centrifuged at 13,000 rpm at 4° C. for 30 minutes, and 10% trichloroacetic acid was added to the supernatant to precipitate proteins. The collected precipitate was dissolved in rehydration buffer (8 M urea, 2% CHAPS, 50 mM DTT and 0.2% IPG buffer), and then, in order to perform 2D gel electrophoresis, the concentration of the proteins was adjusted with a BCA protein analysis kit (Thermo Fisher Scientific), and 200 μg of each protein was separated with Immobiline Dry Strip (pH 4-7, 18 cm, GE healthcare). 2D separation was performed on 12% acrylamide gel in Ettan Dalt II system (10 mA/gel; 1 hr, 40 mA/gel; >6 hr) (GE Healthcare Life Science, Uppsala, Sweden) for 7 hours. Then, the gel having proteins separated thereon stained using silver staining technology, after which the image of the gel was analyzed using Progenesis SameSpots software (version. 4.1, Nonlinear Dynamics, Newcastle, UK), and spots on the gel were detected. In analysis of the gel image, the gel was automatically aligned by measurement of alignment vectors using an analysis wizard, and master images of the experimental groups were made using Progenesis SameSpots software. The master images were used to normalize and quantify the spot volume and to analyze the proteins showing a difference in expression between the groups.
In order to investigate the molecular target of SeMet (selenomethionine) having chemopreventive activity against colorectal cancer, the colon tissue samples obtained from groups 1 to 4 in Example 1 were analyzed by mass spectrometry.
The cut spots were treated with trypsin, and protein identification was performed using a nano LC/MS system composed of a Surveyor HPLC system (Thermo Scientific, Waltham, Mass.) equipped with a nano-ESI source and an electrospray ionization (ESI)-quadrupole ion trap (QIT) mass spectrometer (LCQ Deca XP-Plus, Thermo Finnigan, San Jose, Calif., USA). In order to desalt and concentrate 10 μl of trypsin peptides, the peptide was loaded into a C18 trap column (i.d. 300 μm, length 5 mm, particle size 5 μm; LC Packings, Amsterdam, Netherlands) through an auto sampler at a flow rate of 20 μl/min. Then, the trapped peptides were allowed to flow backward and separated in a C18 reversed-phase capillary column (75 μm silica tube, length 150 mm, particle size 5 μm). The pump flow rate was split 1:100 for a column flow rate of […]. Mobile phase A was a solution of a mixture of 0.5% acetic acid and 0.02% formic acid in water, and mobile phase B was a solution of a mixture of 0.5% acetic acid and 0.02% formic acid in 80% acetonitrile. The samples were injected into the column and eluted by mobile phase B at a concentration gradient of 5-5 20 50 60 80 100% for 0-15-18-50-55-60-62 minutes, respectively. MS and MS/MS spectra were obtained using a capillary tube (temperature: 220° C., ESI voltage: 2.5 kV, and collision energy: 35%). […]

[7] = system: AOM-DSS-induced colorectal cancer; test: Histopathological observation (H & E) of colon tissue of AOM-DSS mice; format: in vivo, mouse; settings: group 4 (SeMet pretreatment + AOM-DSS) compared to group 3 (AOM-DSS alone)
Procedure: as §3

[8] = system: ANXA2 (annexin A2); test: Immunohistochemical analysis of colon tissue: ANXA2; format: in vivo, mouse
Procedure: as §1, §2

[9] = system: AOM-induced premalignant lesions; settings: AOM-DSS mouse models (Baines 2000); cited from earlier work
[10] = system: PHB (prohibitin); test: Immunohistochemical analysis of colon tissue: PHB; format: in vivo, mouse; settings: immunohistochemistry
Procedure: as §1, §2

[11] = administration of SeMet alone (group 2)
[12] = group 4 (SeMet pretreatment + AOM-DSS) vs AOM-DSS-induced colorectal cancer tissue
[13] = pretreatment with SeMet + AOM-DSS vs colorectal cancer development, immunohistochemistry

In the case of `[Se]` [selenium], the “reduction of the risk of CRC” value [1] is given as “about 50%”.
For `C[Se]CC[C@H](N)C(=O)O` [SeMet, selenomethionine], the “polyps in the colon” value [2] was “significantly decreased”, the “expression of PNP” value [3, 11] was “increased” and the “expression of PNP” value [3, 12] was “increased again”. The “8-OHdG in colon tissue” value [4] was “decreased”, the “expression of CRP” value ([5]; SeMet administered alone) was “did not change” and the “expression of CRP” value [5, 13] was “decreased”. For the same molecule, the “Expression in SeMet/AOM-DSS” value ([6]; Alcohol dehydrogenase (Akr1a4), spot 50) was “Decreased”, the “Expression in SeMet/AOM-DSS” value ([6]; Aldose reductase (Akr1b3), spot 49) was “Decreased” and the “Expression in SeMet/AOM-DSS” value ([6]; Annexin 1 (Anxa1), spot 51) was “Decreased”. The “Expression in SeMet/AOM-DSS” value ([6]; Annexin 2 (Anxa2), spot 48) was “Decreased”, the “Expression in SeMet/AOM-DSS” value ([6]; Annexin 3 (Anxa3), spot 40) was “Increased” and the “Expression in SeMet/AOM-DSS” value ([6]; Annexin 7 (Anxa7), spot 57) was “Increased”. For the same molecule, the “Expression in SeMet/AOM-DSS” value ([6]; Beta-actin (Actb), spot 39) was “Increased”, the “Expression in SeMet/AOM-DSS” value ([6]; C-reactive protein (Crp1), spot 14) was “Decreased” and the “Expression in SeMet/AOM-DSS” value ([6]; Cofilin 1 (Cfl1), spot 4) was “Decreased”. The “Expression in SeMet/AOM-DSS” value ([6]; Cofilin 2 (Cfl2), spot 4) was “Decreased”, the “Expression in SeMet/AOM-DSS” value ([6]; Destrin (Dstn), spot 5) was “Decreased” and the “Expression in SeMet/AOM-DSS” value ([6]; Eukaryotic translation initiation 5A (Eif5a), spot 10) was “Increased”. For the same molecule, the “Expression in SeMet/AOM-DSS” value ([6]; Glutathione transferase omega 1 (Gsto1), spot 25) was “Decreased”, the “Expression in SeMet/AOM-DSS” value ([6]; Hypoxanthine-guanine phosphoribosyltransferase 1 (Hprt1), spot 29) was “Decreased” and the “Expression in SeMet/AOM-DSS” value ([6]; Inorganic pyrophosphatase 1 (Ppa1), spot 38) was “Increased”. The “Expression in SeMet/AOM-DSS” value ([6]; Isoform 1 of Isocitrate dehydrogenase [NAD] subunit alpha (Idh3a), spot 41) was “Increased”, the “Expression in SeMet/AOM-DSS” value ([6]; Isoform 1 of Tropomyosin alpha-1 chain (Tpm1), spot 43) was “Decreased” and the “Expression in SeMet/AOM-DSS” value ([6]; L-lactate dehydrogenase A chain (Ldha), spot 47) was “Decreased”. The “Expression in SeMet/AOM-DSS” value ([6]; Nucleoside diphosphate kinase B (Nme2), spot 8) was “Decreased”, the “Expression in SeMet/AOM-DSS” value ([6]; Peroxiredoxin 1 (Prdx1), spot 16, 21) was “Decreased” and the “Expression in SeMet/AOM-DSS” value ([6]; Peroxiredoxin 4 (Prdx4), spot 16, 21) was “Decreased”. The “Expression in SeMet/AOM-DSS” value ([6]; Phosphoglycerate mutase 2 (Pgam2), spot 24) was “Decreased”, the “Expression in SeMet/AOM-DSS” value ([6]; Prohibitin (Phb), spot 34) was “Increased” and the “Expression in SeMet/AOM-DSS” value ([6]; Proteasome activator complex subunit 1 (Psme1), spot 32) was “Increased”. The “Expression in SeMet/AOM-DSS” value ([6]; Proteasome subunit beta type 1 precursor (Psmb1), spot 18) was “Decreased”, the “Expression in SeMet/AOM-DSS” value ([6]; Purine nucleoside phosphorylase (Pnp), spot 33) was “Increased” and the “Expression in SeMet/AOM-DSS” value ([6]; S-formylglutathione hydrolase (Esd), spot 46) was “Decreased”. The “Expression in SeMet/AOM-DSS” value ([6]; Transaldolase (Taldo1), spot 52) was “Decreased”, the “Expression in SeMet/AOM-DSS” value ([6]; Triosephosphate isomerase 1 (Tpi1), spot 19, 23) was “Decreased” and the “Expression in SeMet/AOM-DSS” value ([6]; Ubiquinol cytochrome c reductase 1 (Uqcrfs1), spot 20) was “Decreased”. The “dysplasia and neoplastic lesions” value [7] was “decreases”, the “expression of ANXA2” value ([8]; SeMet administered alone) was “did not change” and the “expression of ANXA2” value [8, 13] was “decreased”. The “development of AOM-induced premalignant lesions” value [9] was “reduces”, the “expression of PHB” value [10, 11] was “increased” and the “expression of PHB” value [10, 12] was “increased again”.
